Test results: US20250090695A1, “IMMUNOSTIMULANT-CYTOTOXIC CONJUGATE COMPOSITION AND METHODS FOR CANCER TREATMENT” (The Research Foundation for the State University of New York, priority 2022, published 2025)

Legend:
[1] = OLINDA dosimetry to adult male from mouse biodistribution
[2] = Biodistribution in a xenograft model of prostate cancer with PC-3 PiP (PSMA(+)) and PC-3 flu (PSMA(−)) tumors; type: in vivo, Male NCr nude mice; conditions: PC-3 PiP/PC-3 flu xenograft, NCr nude mice
Description: Biodistribution analyses of ^177Lu-RIMS-1 and ^177Lu-PSMA-617 were carried out in a xenograft model of prostate cancer with a PC-3 PiP tumor (PSMA(+)) on the left shoulder of a murine subject, and a PC-3 flu tumor (PSMA(−)) on the right should of a murine subject. Murine subjects examined were Male NCr nude mice.

## O=C([O-])CN1CCN(CC(=O)[O-])CCN(CC(=O)NCC2CCC(C(=O)N[C@@H](Cc3ccc4ccccc4c3)C(=O)NCCCC[C@H](NC(=O)N[C@@H](CCC(=O)O)C(=O)O)C(=O)O)CC2)CCN(CC(=O)[O-])CC1.[177Lu+3] (stereo partly shown) [^177Lu-PSMA-617]
[1]; Target Organ Eyes
  OLINDA dosimetry to Adult Male, Eyes: 0.00 μSv/MBq
[1]; Target Organ Gallbladder Wall
  OLINDA dosimetry to Adult Male, Gallbladder Wall: 0.93 μSv/MBq
[1]; Target Organ Heart Wall
  OLINDA dosimetry to Adult Male, Heart Wall: 1.57 μSv/MBq
[1]; Target Organ Kidneys
  OLINDA dosimetry to Adult Male, Kidneys: 54.70 μSv/MBq
[1]; Target Organ Left Colon
  OLINDA dosimetry to Adult Male, Left Colon: 0.18 μSv/MBq
[1]; Target Organ Liver
  OLINDA dosimetry to Adult Male, Liver: 27.80 μSv/MBq
[1]; Target Organ Lungs
  OLINDA dosimetry to Adult Male, Lungs: 2.43 μSv/MBq
[1]; Target Organ Osteogenic Cells
  OLINDA dosimetry to Adult Male, Osteogenic Cells: 0.83 μSv/MBq
[1]; Target Organ Pancreas
  OLINDA dosimetry to Adult Male, Pancreas: 0.32 μSv/MBq
[1]; Target Organ Prostate
  OLINDA dosimetry to Adult Male, Prostate: 0.10 μSv/MBq
[1]; Target Organ Rectum
  OLINDA dosimetry to Adult Male, Rectum: 0.07 μSv/MBq
[1]; Target Organ Red Marrow
  OLINDA dosimetry to Adult Male, Red Marrow: 0.10 μSv/MBq
[1]; Target Organ Right Colon
  OLINDA dosimetry to Adult Male, Right Colon: 0.27 μSv/MBq
[1]; Target Organ Salivary Glands
  OLINDA dosimetry to Adult Male, Salivary Glands: 0.01 μSv/MBq
[1]; Target Organ Small Intestine
  OLINDA dosimetry to Adult Male, Small Intestine: 1.54 μSv/MBq
[1]; Target Organ Spleen
  OLINDA dosimetry to Adult Male, Spleen: 0.25 μSv/MBq
[1]; Target Organ Stomach Wall
  OLINDA dosimetry to Adult Male, Stomach Wall: 0.23 μSv/MBq
[1]; Target Organ Thymus
  OLINDA dosimetry to Adult Male, Thymus: 0.11 μSv/MBq
[1]; Target Organ Thyroid
  OLINDA dosimetry to Adult Male, Thyroid: 0.05 μSv/MBq
[1]; Target Organ Total Body
  OLINDA dosimetry to Adult Male, Today Body: 1.13 μSv/MBq
[1]; Target Organ Tumor
  OLINDA dosimetry to Adult Male, Tumor: 145.00 μSv/MBq
[1]; Target Organ Urinary Bladder Wall
  OLINDA dosimetry to Adult Male, Urinary Bladder Wall: 7.66 μSv/MBq
[2]; 2 h
  Biodistribution Blood (% ID/g ± SD): 0.95 ± 0.53 % ID/g
  Biodistribution Bone (% ID/g ± SD): 0.21 ± 0.11 % ID/g
  Biodistribution Heart (% ID/g ± SD): 0.27 ± 0.12 % ID/g
  Biodistribution Kidney (% ID/g ± SD): 5.12 ± 1.95 % ID/g
  Biodistribution Liver (% ID/g ± SD): 0.29 ± 0.14 % ID/g
  Biodistribution Muscle (% ID/g ± SD): 0.14 ± 0.05 % ID/g
  Biodistribution PSMA (+) (PC3-PIP) tumor (% ID/g ± SD): 11.78 ± 1.46 % ID/g
  Biodistribution PSMA (−) (PC3-Flu) tumor (% ID/g ± SD): 0.48 ± 0.2 % ID/g
  Biodistribution Sm Int (% ID/g ± SD): 0.28 ± 0.15 % ID/g
  Biodistribution Spleen (% ID/g ± SD): .027 ± 0.14 % ID/g
[2]; 24 h
  Biodistribution Blood (% ID/g ± SD): 0.21 ± 0.13 % ID/g
  Biodistribution Bone (% ID/g ± SD): 0.07 ± 0.010 % ID/g
  Biodistribution Heart (% ID/g ± SD): 0.09 ± 0.05 % ID/g
  Biodistribution Kidney (% ID/g ± SD): 0.57 ± 0.29 % ID/g
  Biodistribution Liver (% ID/g ± SD): 0.08 ± 0.040 % ID/g
  Biodistribution Muscle (% ID/g ± SD): 0.04 ± 0.010 % ID/g
  Biodistribution PSMA (+) (PC3-PIP) tumor (% ID/g ± SD): 8.24 ± 3.22 % ID/g
  Biodistribution PSMA (−) (PC3-Flu) tumor (% ID/g ± SD): 0.18 ± 0.13 % ID/g
  Biodistribution Sm Int (% ID/g ± SD): 0.06 ± 0.020 % ID/g
  Biodistribution Spleen (% ID/g ± SD): 0.08 ± 0.040 % ID/g
[2]; 72 h
  Biodistribution Blood (% ID/g ± SD): 0.03 ± 0.01 % ID/g
  Biodistribution Bone (% ID/g ± SD): 0.05 ± 0.01 % ID/g
  Biodistribution Heart (% ID/g ± SD): 0.03 ± 0.01 % ID/g
  Biodistribution Kidney (% ID/g ± SD): 0.08 ± 0.05 % ID/g
  Biodistribution Liver (% ID/g ± SD): 0.03 ± 0.01 % ID/g
  Biodistribution Muscle (% ID/g ± SD): 0.02 ± 0.01 % ID/g
  Biodistribution PSMA (+) (PC3-PIP) tumor (% ID/g ± SD): 3.65 ± 0.59 % ID/g
  Biodistribution PSMA (−) (PC3-Flu) tumor (% ID/g ± SD): 0.02 ± 0.01 % ID/g
  Biodistribution Sm Int (% ID/g ± SD): 0.03 ± 0.01 % ID/g
  Biodistribution Spleen (% ID/g ± SD): 0.04 ± 0.01 % ID/g
